# Test results reported in publication PMC10386613 (Molecules, 2023).
# Several values for one entry are separate records, joined by “and”; a condition that tells them apart may be missing. Identical values can stand only once. Like-named read-outs stand apart in the source and are kept apart here.
# What was measured:
# [1] = molecular target: T1, neuraminidase from Clostridium perfringens (Clostridium perfringens, UniProt A0A0H2YQR1); assay type: biochemical; settings: for Inhibition Mode: Lineweaver–Burk plot; for Ki: Dixon plot, read-out: Ki (inhibition constant); for IC50: fluorescent substrate 100 μM, 0.2 unit/mL enzyme, 50 mM sodium acetate buffer, read-out: IC50 against bacterial neuraminidase (BNA)
# [2] = molecular target: T1, neuraminidase from Clostridium perfringens; assay type: binding; settings: for KSV (Stern–Volmer quenching constant): excitation 290 nm, emission near 360 nm
# [3] = fluorescence quenching, without substrate
# T1 sequence (A0A0H2YQR1 42-694 limits assumed): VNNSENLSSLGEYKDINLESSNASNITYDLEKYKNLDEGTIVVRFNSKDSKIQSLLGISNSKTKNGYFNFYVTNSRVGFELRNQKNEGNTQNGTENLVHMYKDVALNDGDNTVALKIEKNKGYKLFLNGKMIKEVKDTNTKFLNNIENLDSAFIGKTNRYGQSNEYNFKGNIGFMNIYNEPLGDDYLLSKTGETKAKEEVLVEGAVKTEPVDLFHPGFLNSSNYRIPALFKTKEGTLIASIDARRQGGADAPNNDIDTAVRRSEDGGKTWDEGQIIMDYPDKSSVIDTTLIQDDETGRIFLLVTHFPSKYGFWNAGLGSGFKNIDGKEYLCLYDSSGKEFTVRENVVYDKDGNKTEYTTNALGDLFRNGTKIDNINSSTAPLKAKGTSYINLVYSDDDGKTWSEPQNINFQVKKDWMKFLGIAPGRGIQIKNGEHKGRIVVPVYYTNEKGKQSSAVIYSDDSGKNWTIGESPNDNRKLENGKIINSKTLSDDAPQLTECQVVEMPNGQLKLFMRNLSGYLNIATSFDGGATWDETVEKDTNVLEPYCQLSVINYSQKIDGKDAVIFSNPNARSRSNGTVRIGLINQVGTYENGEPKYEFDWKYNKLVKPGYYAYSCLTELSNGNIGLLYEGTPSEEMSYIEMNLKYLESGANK
molecule,measurement,setting,value
"COc1c(-c2ccc(O)c(O)c2)oc2cc(O)cc(O)c2c1=O [Compound 1, 3-O-methyl quercetin]",Inhibition Mode,[1],Noncompetitive
same,KA (binding constant),[2],0.05105
same,KSV (Stern–Volmer quenching constant),[2]; without substrate,2520 L/mol
same,n (number of binding sites),[2]; [3],1.2106
"COc1cc(O)c2c(=O)c(OC)c(-c3ccc(OC)c(O)c3)oc2c1 [Compound 4, 3,7,4′-O-trimethyl quercetin]",Inhibition Mode,[1],Noncompetitive
same,KA (binding constant),[2],0.00021
same,KSV (Stern–Volmer quenching constant),[2]; without substrate,360 L/mol
same,n (number of binding sites),[2]; [3],0.7071
"3,7-O-dimethyl quercetin [Compound 3]",Ki,[1],22.4 ± 0.9 µM
same,Inhibition Mode,[1],Noncompetitive
same,IC50,[1],25.8 µM and 24.3 µM
same,KSV (Stern–Volmer quenching constant),[2]; without substrate,1530 L/mol
same,KA (binding constant),[2]; [3],38180 L/mol
same,n (number of binding sites),[2]; [3],1.0959
"3,4′-O-dimethyl quercetin [Compound 2]",Ki,[1],24.7 ± 0.5 µM
same,Inhibition Mode,[1],Noncompetitive
same,IC50,[1],24.3 µM and 25.8 µM
same,KSV (Stern–Volmer quenching constant),[2]; without substrate,1440 L/mol
same,KA (binding constant),[2]; [3],39940 L/mol
same,n (number of binding sites),[2]; [3],1.1063
